In patent publication US9686994B2, “Use of ALS inhibitor herbicides for control of unwanted vegetation in ALS inhibitor herbicide tolerant beta vulgaris plants” (BAYER CROPSCIENCE AG, priority 2012, dated 2017):
Entries after “also recorded” stand apart in the source; their conditions may differ.

Columns and labels:
[1] = test system: mutated sugar beet plants comprising SEQ.ID.NO:3 and SEQ.ID.NO:5 (on two different alleles), Line A; experiment: Greenhouse trial: ALS inhibitor treatment of sugar beets in direct comparison, Line A; format: in vivo, Beta vulgaris L. ssp. vulgaris; conditions: day 14 after application at BBCH 14; scale 0% no damage to 100% completely killed; g/ha: foramsulfuron 13, iodosulfuron-methyl-Na 3.5, amidosulfuron 15, thiencarbazone-methyl 7.5, Bisbyribac-Na 50, metosulam 15
Protocol: (§1) Mutated sugar beet plants comprising SEQ.ID.NO:3 and SEQ.ID.NO:5 (on two different alleles) for use in the context of the present invention (as described in Example 4 above, “Line A”) were treated with different ALS inhibitors in direct comparison with sugar beet plants where the tryptophan at position 569 of the encoded ALS enzyme is substituted by a leucine (“Line B”), with sugar beet plants described in WO 98/02527 where the proline at position 188 of the encoded ALS enzyme is substituted by a serine (“Line C”), and a traditional variety (wild-type) sugar beet plant not having a mutation at positions 569 and 188 (“Line WT”).
(§2) Several groups of seeds of the four different mentioned sugar beet plants were sown separately in the greenhouse and grew up to stage BBCH 14 for Beta vulgaris L. ssp. vulgaris (i.e. 4 leaves (the second pair) unfolded) according to the BBCH monograph “Growth stages of mono- and dicotyledonous plants”, 2nd edition, 2001, ed. Uwe Meier, Federal Biological Research Centre for Agriculture and Forestry (Biologische Bundesanstalt für Land and Forstwirtschaft). Subsequently, the resulting separate groups of sugar beet plants were each individually treated with an ALS inhibitor (ALS-in) in the amounts (g/ha) indicated in Table 1.
(§3) On day 14 after application of the respective ALS inhibitor, the damage (i.e. the phytotoxicity) for each group of sugar beet plants was rated on a stratified scale from 0% (i.e. no damage, no phytotoxicity) to 100% (i.e. the plants were completely killed).

[2] = test system: sugar beet plants where the tryptophan at position 569 of the encoded ALS enzyme is substituted by a leucine, Line B; experiment: Greenhouse trial: ALS inhibitor treatment of sugar beets in direct comparison, Line B; format: in vivo, Beta vulgaris L. ssp. vulgaris; conditions: day 14 after application at BBCH 14; scale 0% no damage to 100% completely killed; g/ha: foramsulfuron 13, iodosulfuron-methyl-Na 3.5, amidosulfuron 15, thiencarbazone-methyl 7.5, Bisbyribac-Na 50, metosulam 15
Protocol: as §1, §2, §3

[3] = test system: sugar beet plants where the proline at position 188 of the encoded ALS enzyme is substituted by a serine, Line C; experiment: Greenhouse trial: ALS inhibitor treatment of sugar beets in direct comparison, Line C; format: in vivo, Beta vulgaris L. ssp. vulgaris; conditions: day 14 after application at BBCH 14; scale 0% no damage to 100% completely killed; g/ha: foramsulfuron 13, iodosulfuron-methyl-Na 3.5, amidosulfuron 15, thiencarbazone-methyl 7.5, Bisbyribac-Na 50, metosulam 15
Protocol: as §1, §2, §3

[4] = test system: traditional variety (wild-type) sugar beet plant not having a mutation at positions 569 and 188, Line WT; experiment: Greenhouse trial: ALS inhibitor treatment of sugar beets in direct comparison, Line WT; format: in vivo, Beta vulgaris L. ssp. vulgaris; conditions: day 14 after application at BBCH 14; scale 0% no damage to 100% completely killed; g/ha: foramsulfuron 13, iodosulfuron-methyl-Na 3.5, amidosulfuron 15, thiencarbazone-methyl 7.5, Bisbyribac-Na 50, metosulam 15
Protocol: as §1, §2, §3

[5] = test system: regenerated sugar beet plants having the mutated SEQ.ID.NO:3 (heterozygote for this mutation); experiment: Example 3: ALS inhibitor treatment of sugar beets, heterozygote mutant; format: in vivo; conditions: for resistance of the (heterozygote) mutated plants to the herbicide: foramsulfuron 12.5 g/ha, amidosulfuron 15 g/ha, iodosulfuron 3.5 g/ha, thiencarbazone-methyl 7.5 g/ha, up to 3 applications
Text: (§4) The behaviour of regenerated sugar beet plants having the mutated SEQ.ID.NO:3 (heterozygote for this mutation) and a wild-type sugar beet commercial variety was compared.

[6] = test system: wild-type sugar beet commercial variety; experiment: Example 3: ALS inhibitor treatment of sugar beets, wild type; format: in vivo; conditions: foramsulfuron 12.5 g/ha, amidosulfuron 15 g/ha, iodosulfuron 3.5 g/ha, thiencarbazone-methyl 7.5 g/ha; with or without rapeseed oil methyl ester
Text: as §4

[7] = test system: dual mutant sugar beet plant comprising SEQ.ID.NO:3 and SEQ.ID.NO:5 (NCIMB 42050); experiment: Example 4: ALS inhibitor treatment of sugar beets having further mutations in the ALS gene; format: in vivo; conditions: compared with the single mutant (position 569); even when put in composition with organic compounds
Text: Subsequently, a mutated sugar beet plant was developed comprising SEQ.ID.NO:3 and SEQ.ID.NO:5 (on two different alleles). Such resulting dual mutant has been deposited under the Budapest Treaty under NCIMB 42050. A plant comprising both SEQ.ID.NO:3 and SEQ.ID.NO:5 can be generated by relying on several techniques, including, for instance, a subsequent mutagenesis step applied to the single mutant NCIMB 42051.
Then the resistance of this dual mutant plant (a mutation in one allele at amino acid 569 and a mutation in the other allele at amino acid 188) was compared with the single mutant (a mutation at position 569) sugar beet.

## COc1cc(OC)nc(NC(=O)NS(=O)(=O)N(C)S(C)(=O)=O)n1 [Amidosulfuron, amidosulfuron]
[1]
  damage (phytotoxicity), average rating, Line A: 6.3%
[2]
  damage (phytotoxicity), average rating, Line B: 37.5%
[3]
  damage (phytotoxicity), average rating, Line C: 51.9%
[4]
  damage (phytotoxicity), average rating, Line WT: 73.1%
[5]
  resistance of the (heterozygote) mutated plants to the herbicide: same level of resistance
[6]
  sensitivity of the wild-type plant to the herbicide: very sensitive
[7]
  resistance of the dual mutant plant to the herbicide: good resistance

## COc1cc(OC)nc(Oc2cccc(Oc3nc(OC)cc(OC)n3)c2C(=O)O)n1 [Bisbyribac-Na, bispyribac-sodium]
[1]
  damage (phytotoxicity), average rating, Line A: 17.5%
[2]
  damage (phytotoxicity), average rating, Line B: 38.1%
[3]
  damage (phytotoxicity), average rating, Line C: 71.7%
[4]
  damage (phytotoxicity), average rating, Line WT: 80.0%

## COc1cc(OC)nc(NC(=O)NS(=O)(=O)c2cc(NC=O)ccc2C(=O)N(C)C)n1 [Foramsulfuron, foramsulfuron]
[1]
  damage (phytotoxicity), average rating, Line A: 26.9%
[2]
  damage (phytotoxicity), average rating, Line B: 45.6%
[3]
  damage (phytotoxicity), average rating, Line C: 77.5%
[4]
  damage (phytotoxicity), average rating, Line WT: 80.0%
[5]
  resistance of the (heterozygote) mutated plants to the herbicide: good resistance; also recorded: best resistance
[6]
  sensitivity of the wild-type plant to the herbicide: very sensitive

## COC(=O)c1ccc(I)cc1S(=O)(=O)[N-]C(=O)Nc1nc(C)nc(OC)n1.[Na+] [Iodosulfuron-methyl-Na, iodosulfuron-methyl-sodium]
[1]
  damage (phytotoxicity), average rating, Line A: 22.5%
[2]
  damage (phytotoxicity), average rating, Line B: 38.8%
[3]
  damage (phytotoxicity), average rating, Line C: 80.0%
[4]
  damage (phytotoxicity), average rating, Line WT: 82.5%

## COc1cc(OC)n2nc(S(=O)(=O)Nc3c(Cl)ccc(C)c3Cl)nc2n1 [Metosulam, metosulam]
[1]
  damage (phytotoxicity), average rating, Line A: 13.1%
[2]
  damage (phytotoxicity), average rating, Line B: 40.6%
[3]
  damage (phytotoxicity), average rating, Line C: 69.4%
[4]
  damage (phytotoxicity), average rating, Line WT: 79.4%

## COC(=O)c1csc(C)c1S(=O)(=O)NC(=O)n1nc(OC)n(C)c1=O [Thiencarbazone-methyl, thiencarbazone-methyl]
[1]
  damage (phytotoxicity), average rating, Line A: 8.1%
[2]
  damage (phytotoxicity), average rating, Line B: 35.6%
[3]
  damage (phytotoxicity), average rating, Line C: 37.5%
[4]
  damage (phytotoxicity), average rating, Line WT: 84.4%
[5]
  resistance of the (heterozygote) mutated plants to the herbicide: about the same level of resistance as for iodosulfuron
[6]
  sensitivity of the wild-type plant to the herbicide: very sensitive
[7]
  resistance of the dual mutant plant to the herbicide: good resistance

## COc1nc(C)nc(NC(=O)NS(=O)(=O)c2cc(I)ccc2C(=O)O)n1 [iodosulfuron]
[5]
  resistance of the (heterozygote) mutated plants to the herbicide: good level of resistance
[5]; iodosulfuron 3.5 g/ha with 25 g/ha rapeseed oil methyl ester
  resistance of the (heterozygote) mutated plants, herbicide applied together with the organic compound: resistance declined
[6]
  sensitivity of the wild-type plant to the herbicide: very sensitive
